Measured values reported in the NIST ThermoML archive (doi:10.1016/j.tca.2012.08.009).

How the values were obtained:
[1] = 298.15 K, 101 kPa, Liquid; for viscosity: Capillary tube (Ostwald / Ubbelohde) method; for speed of sound: Linear variable-path acoustic interferometer; for mass density: Vibrating tube method
[2] = refractive index (Na D-line) (dimensionless); conditions: 298.15 K; 101.33 kPa; Liquid; Standard Abbe refractometry
[3] = wn = mass fraction of the nth substance listed; conditions: 298.15 K, 101 kPa, Liquid; for viscosity: Capillary tube (Ostwald / Ubbelohde) method; for speed of sound: Linear variable-path acoustic interferometer; for mass density: Vibrating tube method
[4] = refractive index (Na D-line) (dimensionless); wn = mass fraction of the nth substance listed; conditions: 298.15 K, 101 kPa, Liquid, Standard Abbe refractometry
[5] = cn = amount concentration of the nth substance listed, in mol/dm3; conditions: 298.15 K, 101 kPa, Liquid; for molar conductivity: Alternating current cell with electrodes; for viscosity: Capillary tube (Ostwald / Ubbelohde) method; for speed of sound: Linear variable-path acoustic interferometer; for mass density: Vibrating tube method
[6] = refractive index (Na D-line) (dimensionless); cn = amount concentration of the nth substance listed, in mol/dm3; conditions: 298.15 K, 101 kPa, Liquid, Standard Abbe refractometry

C1COCO1 [1,3-dioxolane]
Conditions	mass density [kg/m3]	refractive index	speed of sound [m/s]	viscosity [mPa·s]
[1]	1058.72	–	1338.9	0.597
[2]	–	1.3974	–	–

C1COCO1 [1,3-dioxolane] + CC#N
Conditions	mass density, [3] [kg/m3]	refractive index, [4]	speed of sound, [3] [m/s]	viscosity, [3] [mPa·s]
w2 = 0	1058.72	1.3974	1338.9	0.597
w2 = 0.25	979.95	1.3835	1324.6	0.533
w2 = 0.5	909.57	1.3696	1310.2	0.471
w2 = 0.75	841.47	1.3557	1295.8	0.407

CC#N [acetonitrile]
Conditions	mass density [kg/m3]	refractive index	speed of sound [m/s]	viscosity [mPa·s]
[1]	776.74	–	1281.5	0.343
[2]	–	1.3418	–	–

CC#N [acetonitrile] + C1COCO1
w1 = 1
Conditions	mass density [kg/m3]	refractive index	speed of sound [m/s]	viscosity [mPa·s]
[3]	776.74	–	1281.5	0.343
[4]	–	1.3418	–	–

[Br-].[Li+] [lithium bromide] + C1COCO1
Conditions	mass density [kg/m3]	molar conductivity [S·m2/mol]	refractive index	speed of sound [m/s]	viscosity [mPa·s]
[5], c1 = 2.686e-05	–	0.002392	–	–	–
[5], c1 = 3.525e-05	–	0.002226	–	–	–
[5], c1 = 4.178e-05	–	0.002164	–	–	–
[5], c1 = 4.7e-05	–	0.002136	–	–	–
[5], c1 = 5.127e-05	–	0.002128	–	–	–
[5], c1 = 5.483e-05	–	0.002127	–	–	–
[5], c1 = 5.868e-05	–	0.002129	–	–	–
[5], c1 = 6.267e-05	–	0.002145	–	–	–
[5], c1 = 6.635e-05	–	0.002167	–	–	–
[5], c1 = 7.115e-05	–	0.002199	–	–	–
[5], c1 = 7.52e-05	–	0.002233	–	–	–
[5], c1 = 7.917e-05	–	0.002272	–	–	–
[5], c1 = 0.0142	1058.79	–	–	1347.4	0.599
[5], c1 = 0.0284	1059	–	–	1366.8	0.603
[5], c1 = 0.0426	1059.29	–	–	1394.6	0.607
[5], c1 = 0.0569	1059.65	–	–	1430.9	0.612
[5], c1 = 0.0712	1060.05	–	–	1475.6	0.617
[5], c1 = 0.0855	1060.52	–	–	1531.8	0.622
[6], c1 = 0.0142	–	–	1.3984	–	–
[6], c1 = 0.0284	–	–	1.3993	–	–
[6], c1 = 0.0426	–	–	1.4001	–	–
[6], c1 = 0.0569	–	–	1.4008	–	–
[6], c1 = 0.0712	–	–	1.4014	–	–
[6], c1 = 0.0855	–	–	1.402	–	–

[Cl-].[Li+] [lithium chloride] + C1COCO1
Conditions	mass density [kg/m3]	molar conductivity [S·m2/mol]	refractive index	speed of sound [m/s]	viscosity [mPa·s]
[5], c1 = 3.525e-05	–	0.003047	–	–	–
[5], c1 = 3.871e-05	–	0.002972	–	–	–
[5], c1 = 4.453e-05	–	0.002875	–	–	–
[5], c1 = 4.924e-05	–	0.002803	–	–	–
[5], c1 = 5.609e-05	–	0.00273	–	–	–
[5], c1 = 6.159e-05	–	0.002693	–	–	–
[5], c1 = 6.635e-05	–	0.002673	–	–	–
[5], c1 = 7.162e-05	–	0.002663	–	–	–
[5], c1 = 7.442e-05	–	0.002672	–	–	–
[5], c1 = 7.691e-05	–	0.002715	–	–	–
[5], c1 = 7.721e-05	–	0.002746	–	–	–
[5], c1 = 7.779e-05	–	0.002778	–	–	–
[5], c1 = 0.0142	1058.75	–	–	1344.6	0.597
[5], c1 = 0.0284	1058.9	–	–	1356.8	0.598
[5], c1 = 0.0426	1059.11	–	–	1373.9	0.601
[5], c1 = 0.0568	1059.4	–	–	1394.7	0.603
[5], c1 = 0.071	1059.75	–	–	1420.8	0.606
[5], c1 = 0.0852	1060.14	–	–	1451.4	0.608
[6], c1 = 0.0142	–	–	1.398	–	–
[6], c1 = 0.0284	–	–	1.3988	–	–
[6], c1 = 0.0426	–	–	1.3994	–	–
[6], c1 = 0.0568	–	–	1.4	–	–
[6], c1 = 0.071	–	–	1.4005	–	–
[6], c1 = 0.0852	–	–	1.401	–	–

[I-].[Li+] [lithium iodide] + C1COCO1
Conditions	mass density [kg/m3]	molar conductivity [S·m2/mol]	refractive index	speed of sound [m/s]	viscosity [mPa·s]
[5], c1 = 8.17e-06	–	0.001792	–	–	–
[5], c1 = 1.498e-05	–	0.000612	–	–	–
[5], c1 = 2.075e-05	–	0.000192	–	–	–
[5], c1 = 2.568e-05	–	0.000191	–	–	–
[5], c1 = 2.997e-05	–	0.000418	–	–	–
[5], c1 = 3.702e-05	–	0.000994	–	–	–
[5], c1 = 4.495e-05	–	0.001751	–	–	–
[5], c1 = 5.081e-05	–	0.00241	–	–	–
[5], c1 = 5.66e-05	–	0.003074	–	–	–
[5], c1 = 6.421e-05	–	0.003828	–	–	–
[5], c1 = 6.958e-05	–	0.004382	–	–	–
[5], c1 = 7.293e-05	–	0.004735	–	–	–
[5], c1 = 0.0142	1058.82	–	–	1350.6	0.601
[5], c1 = 0.0284	1059.06	–	–	1377.7	0.607
[5], c1 = 0.0427	1059.4	–	–	1416.8	0.614
[5], c1 = 0.057	1059.82	–	–	1469.7	0.621
[5], c1 = 0.0714	1060.32	–	–	1539.7	0.628
[5], c1 = 0.0858	1060.86	–	–	1630.2	0.635
[6], c1 = 0.0142	–	–	1.3988	–	–
[6], c1 = 0.0284	–	–	1.3997	–	–
[6], c1 = 0.0427	–	–	1.4004	–	–
[6], c1 = 0.057	–	–	1.4011	–	–
[6], c1 = 0.0714	–	–	1.4018	–	–
[6], c1 = 0.0858	–	–	1.4024	–	–
